Measured values published in PubChem BioAssay AID179 (DTP/NCI, 2004).
pEC50, pIC50: −log10 of the molar value. Activity calls are given as the source filed them.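 The calls were made as follows: active = compounds giving half or more protection of infected cells from virus-caused growth loss, again on retest; inactive = the rest.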 Where a SMILES comes first, the peptide text is derived from it.

Test system: CEM cells HIV-1 protection, formazan growth assay
Assay: NCI AIDS Antiviral Assay
Settings: for pIC50: measured here: growth of uninfected CEM cells
Procedure, shortened: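 Screen of anti-HIV-1 activity in human CEM cells using a formazan-based growth measurement at five drug concentrations. Hits with 50% or greater protection were repeated, and confirmation required reproducible complete protection.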

Compound `CN1c2ccccc2C(=O)NC12CCNCC2` has a pEC50 of under 3.70 and a pIC50 of under 3.70.
`Nc1ncnc2c1ncn2C1CC(O)C(CO)(C(F)(F)F)O1` (stereo not given) was tested, and the pEC50 was under 3.70 and the pIC50 was 4.21.
`COC(=O)c1ccccc1N=Cc1ccc(N(CCC#N)S(=O)(=O)c2ccccc2)cc1` showed a pEC50 of under 3.25 and a pIC50 of 3.32.
In the case of `CC1=NNC(=NCCN(C)C)C/C1=C/c1ccccc1Cl`, the outcome was “inactive”.
For `C/C(N)=N/OCc1nc(C)no1`, the pEC50 was under 3.70 and the pIC50 was under 3.70.
`COc1cc(Cc2nnc(N)nc2N)cc(OC)c1OC` showed a pEC50 of under 4.75 and a pIC50 of under 4.75.
`COC(=O)C([C@H](NC1(c2ccccc2)c2ccccc2-c2ccccc21)C(=O)OC)N(NC(=O)OCc1ccccc1)C(=O)OCc1ccccc1` (mixture of isomers) was tested, and the pEC50 was under 3.70 and the pIC50 was 3.96.
`CCOC(=O)c1nc2c(OC)nn(O)cc-2c1Br` was tested, and the pEC50 was under 3.10 and the pIC50 was under 3.10.
In the case of `Cc1noc(NS(=O)(=O)c2ccc(NC(=S)/N=C/c3c(O)[nH]c(=O)[nH]c3=O)cc2)c1C`, the pEC50 was under 3.70 and the pIC50 was under 3.70.
For `O=c1[nH]c(=O)n(COCc2ccccc2)c2ccccc12`, the pEC50 was under 3.70 and the pIC50 was 3.76.
Work on `Cc1cc([N+](=O)[O-])ccc1NC(=O)C(=O)C(C(=O)c1ccccc1-c1ccccc1)C1OC(=O)c2ccccc21` (stereo not given) yielded a pEC50 of under 3.75 and a pIC50 of 4.55.
`COc1ccc(/C=N/N=C(\N)NO)c(OC)c1OC` gave a pEC50 of under 3.70 and a pIC50 of under 3.70.
Work on `O=C(NC1C=Nc2ccc([N+](=O)[O-])cc2NC1=O)c1ccc(Cl)cc1` (stereo not given) yielded a pEC50 of under 3.70 and a pIC50 of under 3.70.
In the case of `CCCNC(=O)N(CC(C)C)S(=O)(=O)c1ccc(Cl)cc1`, the outcome was “inactive”.
Work on `N[C@H]1CCc2c1nc1c(c2-c2ccccc2)CC[C@@H]1N` yielded a pEC50 of under 3.70 and a pIC50 of 4.08.
`CC1(O)C=CC(=O)C=C1` gave a pEC50 of under 2.70 and a pIC50 of 5.46.
`O/N=C1/C(=C/c2ccc(Br)cc2)CCCC1C(NO)c1ccc(Br)cc1` (stereo not given) showed a pEC50 of under 4.68 and a pIC50 of under 4.68.
Work on `O=C(/C=C/c1ccccc1)CCN1CCCC1` yielded a pEC50 of under 3.70 and a pIC50 of 5.09.
`CCC(C)C(NC(=O)c1ccccc1SC(=O)OCCCCCl)C(N)=O` (stereo not given) showed a pEC50 of 5.56 and a pIC50 of under 3.70.
In the case of `O=C(NC(=O)c1cn(CCN2CCN(C(=O)NCCCCCCNC(=O)N3CCN(CCn4cc(C(=O)NC(=O)OCc5ccccc5)c(=O)[nH]c4=O)CC3)CC2)c(=O)[nH]c1=O)OCc1ccccc1`, the outcome was “inactive”.
`Cc1nc(N)nc(N)c1N1CCN(c2ccc(S(=O)(=O)N(Cc3ccccc3)Cc3ccccc3)cc2)CC1` was tested, and the pEC50 was 7.30 and the pIC50 was 6.88.
Compound `CCCCCCCC1c2cc3[nH]c(cc4nc(cc5[nH]c(cc(n2)[C@@]1(C)CC(=O)N(C)C)c(C)c5CCC(=O)O)C(CCC(=O)O)=C4C)cc3C` (stereo not given in full) has a pEC50 of under 3.70 and a pIC50 of 5.12.
`N#Cc1c(N=C2CCCCC2)c(C(=O)Nc2ccccc2)n2c1CCC2` showed a pEC50 of under 4.00 and a pIC50 of under 4.00.
`COC(c1ccc(C(C)(C)C)cc1)(c1ccc(C(C)(C)C)cc1)c1cc(C(O)(c2cc(C(OC)(c3ccc(C(C)(C)C)cc3)c3ccc(C(C)(C)C)cc3)c(C)cc2C)c2cc(C(OC)(c3ccc(C(C)(C)C)cc3)c3ccc(C(C)(C)C)cc3)c(C)cc2C)c(C)cc1C` was tested, and the outcome was “inactive”.
`CC(=O)CC(=O)Nc1ccccc1[N+](=O)[O-]` was tested, and the outcome was “inactive”.
`O=C(CC(=O)C1=CNc2ccccc2S1)C(=O)Nc1ccc(Cl)cc1` gave a pEC50 of under 3.90 and a pIC50 of under 3.90.
With `COc1cc2c(cc1OC)C(Cl)C(c1ccc(Cl)c(Cl)c1)=C2Cl` (stereo not given) the outcome was “inactive”.
`COc1ccc(NC(=O)CC(=O)N2N=C(C)C(N=Nc3ccc(C(=O)O)cc3)C2=O)cc1` (stereo not given) gave a pEC50 of under 3.70 and a pIC50 of 4.02.
With `C=CCC12CC(O)C(O)CC1(O)OC(c1cc(OC)c(OC)c(OC)c1)C2C` (stereo not given) the pEC50 was under 3.70 and the pIC50 was under 3.70.
`O=C(/C=C/c1ccc(O)c(O)c1)OC(Cc1ccc(O)c(O)c1)C(=O)O` (stereo not given) was tested, and the pEC50 was under 3.70 and the pIC50 was 4.58.
In the case of `CC(C)(C)[C@H]1CO[C@]2(C)[C@@H]3C[C@@H]3C(=O)N12`, the outcome was “inactive”.
Work on `C=CCC(C=C=CCN(C)C)CO` (stereo not given) yielded a pEC50 of under 2.92 and a pIC50 of 3.20.
`CON(C)C(C#N)=C(C#N)C#N` showed a pEC50 of under 3.70 and a pIC50 of under 3.70.
Work on `N#C/C(=C\c1ccc(-c2ccccc2)cc1)c1ccc(Cl)cc1` yielded a pEC50 of under 4.00 and a pIC50 of under 4.00.
`CCN(CC)c1ncnc2c1ncn2CCNC(CO)(CO)CO` showed a pEC50 of under 3.70 and a pIC50 of under 3.70.
Compound `COc1ccc(/C=C/C(=O)c2cc(C(C)(C)C)c(O)c(C(C)(C)C)c2)cc1` has a pEC50 of under 4.99 and a pIC50 of 5.30.
With `O=C(Nc1cc(Cl)c(Cl)cc1NC(=O)C(Cl)(Cl)Cl)C(Cl)(Cl)Cl` the pEC50 was under 3.70 and the pIC50 was 6.38.
`NC(=O)C(c1ccccc1)N1CCCCC1` (stereo not given) was tested, and the outcome was “inactive”.
In the case of `Cc1cc(C)n(-c2c(O)ccc(O)c2-n2nc(C)cc2C)n1`, the pEC50 was under 3.64 and the pIC50 was 3.92.
For `Fc1cccc(F)c1C1SCc2nc3cc(Cl)ccc3n21` (stereo not given), the pEC50 was under 3.70 and the pIC50 was 3.74.
With `O=C(O)CCCCCCCCCCCC(=O)O` the pEC50 was under 3.83 and the pIC50 was under 3.83.
`COc1cc(/C=C/c2ccnc3ccccc23)cc(OC)c1OC` showed a pEC50 of under 3.70 and a pIC50 of 5.83.
`CC1=C(C(=O)Nc2cc(=O)n(C)c(=O)n2C)C(c2ccc([N+](=O)[O-])cc2)C(C(=O)Nc2cc(=O)n(C)c(=O)n2C)=C(C)N1` was tested, and the pEC50 was under 5.06 and the pIC50 was under 5.06.
For `COc1ccc(/C=C/CN(C)CCc2ccccc2)cc1OC`, the outcome was “inactive”.
For `NCc1ccc(S(N)(=O)=O)cc1`, the pEC50 was under 3.70 and the pIC50 was under 3.70.
Compound `C=CCOC(C)n1c(C)cc(=O)n(C(C)OCC=C)c1=O` (stereo not given) has a pEC50 of under 3.70 and a pIC50 of under 3.70.
For `CC(C)(CN1CCCCC1)C(=O)CC(SCCS(=O)(=O)O)c1ccccc1` (stereo not given), the pEC50 was under 3.70 and the pIC50 was 5.48.
With `c1ccc2c(c1)NC1=C(CSCC1)c1nncn1-2` the pEC50 was under 3.70 and the pIC50 was under 3.70.
For `Cc1cc(O)ccc1C1(c2ccc(F)cc2)OC(=O)c2ccccc21` (stereo not given), the outcome was “inactive”.
For `O=[N+]([O-])c1ccc(-c2ccc(-c3csc(Nc4ccccn4)n3)o2)cc1`, the pEC50 was under 5.26 and the pIC50 was under 5.26.
`COc1ccc(CNNCc2ccc(OC)cc2)cc1` showed a pEC50 of under 3.70 and a pIC50 of 3.96.
Work on `COC(=O)/C=C/CCC#Cc1ccccc1C#CCC/C=C/C(=O)OC` yielded a pEC50 of under 3.70 and a pIC50 of 5.55.
For `CCC(C)C(NC(=O)CNC(=O)C(Cc1cnc[nH]1)NC(=O)C(NC(=O)C(CS)NC(=O)C(CCC(N)=O)NC(=O)C(NC(=O)C(NC(=O)C(CO)NC(=O)C(NC(=O)C(CC(N)=O)NC(=O)C(NC(=O)C(CS)NC(=O)C1CCCN1C(=O)CNC(=O)C(NC(=O)CN)C(C)O)C(C)O)C(C)C)C(C)O)C(C)C)C(C)O)C(=O)NC(CCCN=C(N)N)C(N)=O` (stereo not given) (H-GTGPCTNVSTVQCTHGIR-NH2; configuration not given here), the pEC50 was under 4.30 and the pIC50 was under 4.30.
`CC(=O)c1ccc(N2C(=O)C3c4[nH]c5ccccc5c4C4CCC(C(C)(C)C)CC4C3C2=O)cc1` (stereo not given) was tested, and the pEC50 was under 4.95 and the pIC50 was under 4.95.
For `CC1(C)OC2OC(C(=O)c3ccccc3)C3OC(C)(C)OC3C2O1` (stereo not given), the outcome was “inactive”.
`COC(=O)CCc1ccc(CCC(=O)OC)cc1` gave a pEC50 of under 3.70 and a pIC50 of under 3.70.
`CN(C)C(=S)/N=c1\ssc(=S)n1-c1ccccc1` was tested, and the outcome was “inactive”.
`COc1ccc2c(O)c(Oc3ccccc3)c(=O)oc2c1` was tested, and the pEC50 was under 3.70 and the pIC50 was 3.84.
For `O=S(=O)(c1ccccc1)C1CC(c2ccccc2)N(c2ccccc2)O1` (stereo not given), the pEC50 was under 4.56 and the pIC50 was under 4.56.
With `COC1=CC(=Nc2c(Cl)cc(Cl)cc2OC(=O)c2ccc([N+](=O)[O-])cc2)C=C(OC)C1=O` the outcome was “inactive”.
Work on `CC(C)(C)SSC(C)(C)C` yielded a pEC50 of under 3.70 and a pIC50 of under 3.70.
Compound `CC1(C)CCSC(/C=C/c2ccccc2)=N1` has a pEC50 of under 4.70 and a pIC50 of 5.38.
For `Cn1nc(S(N)(=O)=O)s/c1=N/C(N)=S`, the pEC50 was under 3.70 and the pIC50 was under 3.70.
For `C/C(=N\Nc1ccc([N+](=O)[O-])cc1[N+](=O)[O-])c1sc(-n2nc(-c3ccccc3)cc2-c2ccccc2)nc1C`, the pEC50 was under 3.90 and the pIC50 was 4.37.
With `CC(=O)Oc1ccc[nH]c1=O` the pEC50 was under 3.70 and the pIC50 was 4.23.
With `COC(=O)c1nn(-c2ccccc2)c(=O)cc1N=[N+]=[N-]` the pEC50 was under 3.70 and the pIC50 was 3.95.
For `CC(C)N(C(=O)C12C3C4C1C1C2C3C41C(O)C(C)(C)C)C(C)C` (stereo not given), the pEC50 was 5.52 and the pIC50 was 4.92.
Work on `Cc1cc(C)nc(NS(=O)(=O)c2ccc(NC(=O)c3cccc4c(Nc5ccc(S(N)(=O)=O)cc5)c5ccccc5nc34)cc2)n1` yielded a pEC50 of under 4.26 and a pIC50 of 4.66.
With `C[C@H]1SC(c2ccc(Cl)cc2Cl)N(NC(=O)c2ccncc2)C1=O` (stereo not given in full) the pEC50 was under 3.70 and the pIC50 was 4.47.
`OC1(c2ccc(Cl)cc2)c2ccccc2-c2nc3ccccc3n21` (stereo not given) was tested, and the pEC50 was under 3.70 and the pIC50 was 3.76.
`COC(=O)C1=C(SC)SC2(C(=O)OC)C3C=C(C)C4C(N13)C42C(=O)OC` (stereo not given) was tested, and the pEC50 was under 5.44 and the pIC50 was under 5.44.
`S=C(NCCSSCCNC(=S)Nc1ccccc1)Nc1ccccc1` was tested, and the pEC50 was under 3.70 and the pIC50 was 4.45.
With `COC(=O)C(=O)C(/C=N/C(=S)NCCc1ccc(OC)c(OC)c1)=C(/O)c1ccc([N+](=O)[O-])cc1` the pEC50 was under 4.00 and the pIC50 was under 4.00.
With `COc1cc2c(cc1O)C1Cc3cc(O)c(OC)cc3C(C2)N1C` (stereo not given) the pEC50 was under 3.12 and the pIC50 was 4.31.
`O=S1(=O)CCCCS1` gave a pEC50 of under 3.70 and a pIC50 of 5.27.
`CCC[CH2][Sn]([CH2]CCC)([S]c1cccc2cccnc12)[S]c1cccc2cccnc12` was tested, and the outcome was “inactive”.
In the case of `CC1(C)CCC(Sc2ccccc2)O1` (stereo not given), the outcome was “inactive”.
Work on `O=C1C2CN(Cc3ccccc3)CC2C(=O)N1c1ccccc1` (stereo not given) yielded a pEC50 of under 3.70 and a pIC50 of under 3.70.
`CCCCOC(=O)CCC(Nc1nc(Cl)nc(Cl)n1)C(=O)OCCCC` (stereo not given) was tested, and the pEC50 was under 3.70 and the pIC50 was under 3.70.
With `CCOP(C)(=O)C(Cc1c[nH]c2ccccc12)C(=O)O` (stereo not given) the pEC50 was under 3.70 and the pIC50 was under 3.70.
`S=c1nc(-c2ccnc(-c3nc(=S)[nH][nH]3)c2)[nH][nH]1` was tested, and the pEC50 was under 4.59 and the pIC50 was under 4.59.
`O=c1[nH]c(-c2ccccc2)nc2ccc(Cl)cc12` was tested, and the outcome was “inactive”.
Compound `COc1ccccc1C=C1C(=O)NC(=O)NC1=O` has a pEC50 of under 3.84 and a pIC50 of under 3.84.
Compound `COC1(OC)CC(CO)(CNc2nc(N)nc(Cl)c2C=O)C1` has a pEC50 of under 3.79 and a pIC50 of 4.85.
`O=[N+]([O-])c1ccc(Cl)cc1-n1nc(-c2ccccc2)cc1-c1ccccc1` gave a pEC50 of under 3.70 and a pIC50 of under 3.70.
`O1[SiH]2[SiH]3O[SiH]3[SiH]3O[SiH]3[SiH]12` (stereo not given) was tested, and the outcome was “inactive”.
